Where “and” joins values, the source holds several entries; their conditions need not be identical. Identical values can stand only once.
Experiments:
[1] = tested on: lipase of SEQ ID NO: 2; assay: Effect of solvents on lipase activity; assay type: biochemical, Thermoanaerobacter thermohydrosulfuricus; conditions: solvent up to 50% by volume
[2] = tested on: lipase of SEQ ID NO: 2; assay: Enantioselectivity of ester hydrolysis; assay type: biochemical, Thermoanaerobacter thermohydrosulfuricus
Description: The (S)-alcohols were formed. The lipase was more enantioselective towards butynol butyrate than towards butynol acetate. Over time the conversion increased for all four substrates and reached above 20-30% after 24 h of reactions time. Over time in the contrast to the conversion the enantioselectivity of the enzyme towards both substrates decreased for butynol butyrate from 16.7 to 8.06 and for butynol acetate from 9.15 to 2.65 after 40 h of reactions time. […] For two other substrates the enantioselectivity of the lipase (E≧1) was constant over time.

[3] = tested on: lipase; assay: Effects of metal ions on lipase activity; assay type: biochemical; conditions: metal ions up to 10 mM
From the text: The activity was decreased by the following ions: Zn2+, Fe2+, Fe3+ and Cr3+.

[4] = tested on: lipase of SEQ ID NO: 2; assay: Substrate specificity with triacylglycerols; assay type: biochemical, Thermoanaerobacter thermohydrosulfuricus; conditions: triacylglycerol 10 mM, pH 8.0, 25 h at 70° C.
Description: The lipase of SEQ ID NO: 2 was tested by reaction with various triacylglycerols 10 mM (pH 8.0) as substrates: for 25 h at 70° C. Similar results were obtained with the lipase of SEQ ID NO: 4.

[5] = tested on: lipase of SEQ ID NO: 2; assay: Substrate specificity for pNP-esters; assay type: biochemical, Thermoanaerobacter thermohydrosulfuricus; conditions: pNP-ester 1 mM, pH 8.0, 10 min at 70° C.
[6] = tested on: lipase from T. thermohydrosulfuricum (SEQ ID NO: 2); assay: Alcoholysis of triacylglycerols (positional specificity towards triglycerides); assay type: biochemical, Thermoanaerobacter thermohydrosulfuricus; conditions: for DG 1,3- / FA (fatty acid) / MG 1- 3- / TG (remaining substrate) / DG 1,2- 2,3-: alcoholysis with ethanol in acetone, 7 h at 65° C.
Description: Alcoholysis of various triacylglycerols catalyzed by the lipase of SEQ ID NO: 2 were tested. All substrates were alcoholyzed by the lipase. […] For other substrates the conversions were above 40%. The lipase catalysed the synthesis of 1,3-diacylglycerides and 1- and 3-monoacylglycerides from triacylglycerides at highest rate. No sn2-monoglyceride was produced. […] With the length of the ester bonds the 2-positional specificity of the protein increased.
The positional specificity of the lipase from T. thermohydrosulfuricum (SEQ ID NO: 2) was tested towards the following triglycerides (TG, triacylglycerols): trilaurin (C12), trimyristin (C14), tripalmitin (C16), tristearin (C18), Triolein (C18:1). Each TG (3 mmol) was dissolved in organic solvent (2 ml acetone) and pre-equilibrated at 65° C. for 15 min, 400 rpm. Dry ethanol (3 mmol) was added and reaction mixture was incubated at 65° C. for 15 min, 400 rpm. Lipase (10% based on TG weight) was added to start reaction. Reaction was carried out in a 4-ml screw-capped vial and the reaction mixture was mixed with magnetic stirrer (400 rpm). Aliquot amount of reaction mixture (20 μl) was periodically withdrawn and diluted with chloroform (80 μl) to appropriate dilution, followed by analysis with latroscan to determine acylglycerol composition.
Changes in glycerides composition of the reaction medium during reaction were quantitatively determined by TLC/FID using latroscan analytical methods (latroscan, latron Laboratories, Inc., Tokyo, Japan). Before analysis, a blank of the chromarod was scanned. After treating chromarod with boric acid (3%) and drying for 5 min, 0.1 μl of the reaction medium (diluted in chloroform at appropriate dilution) is spotted onto the chromarod and the spotted sample was developed for 10 cm in a mixture of benzene:chloroform:acetic acid (50:30:0.5, by vol) for 35 min. After drying, the chromarod in an oven at 110° C. for 5 min, scanning is performed at a hydrogen flow rate of 160 ml/min and an air flow rate of 2.01/min to produce a chromatogram.
The results of the alcoholysis of the triacylglycerols catalysed by the lipase from […] after 7 h reactions time at 65° C. are given below as % of remaining substrate (TG) and % of the following products: fatty acid (FA), diglycerides (DG, with 1,3-DG separated from 1,2- and 2,3-DG), monoglyceride (MG, with 2-MG separated from 1- and 3-MG).

[7] = tested on: lipase of SEQ ID NO: 4; assay: Effect of inhibitors on lipase activity; assay type: biochemical, Caldanaerobacter subterraneus subsp. tengcongensis
[8] = tested on: lipase of SEQ ID NO: 2; assay: Effect of inhibitors on lipase activity; assay type: biochemical, Thermoanaerobacter thermohydrosulfuricus

Compound: c1ccncc1 [pyridine]
- effect on the activity of the lipase [1]: little effect

Compound: CC(=O)OC(C)c1ccccc1 (stereo not shown) [1-phenyl-1-ethyl-acetate]
- lipase activity towards substrate [2]: active

Compound: [K+] [K+]
- lipase activity in the presence of metal ions [3]: nearly unchanged

Compound: CCCCCCCCCC(=O)OCC(COC(=O)CCCCCCCCC)OC(=O)CCCCCCCCC [Tricaprin, Tricaprin (C10:0)]
- Relative activity [4]: 15

Compound: CCCCCCCCCCCCCC(=O)Oc1ccc([N+](=O)[O-])cc1 [pNP-myristate, pNP-myristate (C14:0)]
- Relative activity [5]: 68

Compound: Triolein (C18:1)
- DG 1,3- [6]: 18%
- FA (fatty acid) [6]: 2%
- MG 1- 3- [6]: 17%
- TG (remaining substrate) [6]: 63%
- Relative activity [4]: 12

Compound: CC#N [acetonitrile]
- effect on the activity of the lipase [1]: little effect

Compound: CCO [ethanol]
- effect on the activity of the lipase [1]: little effect

Compound: [Cr+3] [Cr3+]
- lipase activity in the presence of metal ions [3]: decreased

Compound: CCCCCCCCCCCCCCCCCC(=O)OCC(COC(=O)CCCCCCCCCCCCCCCCC)OC(=O)CCCCCCCCCCCCCCCCC [Tristearin, Tristearin (C18:0)]
- conversion ([6]; alcoholysis of triacylglycerol): 67%
- DG 1,3- [6]: 48%
- FA (fatty acid) [6]: 10%
- MG 1- 3- [6]: 9%
- TG (remaining substrate) [6]: 33%
- Relative activity [4]: 9

Compound: [Mg+2] [Mg2+]
- lipase activity in the presence of metal ions [3]: nearly unchanged

Compound: NCCc1ccc(S(=O)(=O)F)cc1 [Pefablock]
- inactivation of the lipase ([7]; 0.1-1 mM): inactivated
- inactivation of the lipase ([8]; 0.1-1 mM): inactivated

Compound: O=C(O)CI [iodo-acetate]
- effect on the activity of the lipase ([7]; up to 10 mM): little effect
- effect on the activity of the lipase ([8]; up to 10 mM): little effect

Compound: CCCCCC(=O)OCC(COC(=O)CCCCC)OC(=O)CCCCC [Tricaproin, Tricaproin (C6:0)]
- Relative activity [4]: 74

Compound: CCCCCC(=O)Oc1ccc([N+](=O)[O-])cc1 [pNP-caproate, pNP-caproate (C6:0)]
- Relative activity [5]: 81

Compound: CC(C)O [isopropanol]
- effect on the activity of the lipase [1]: little effect

Compound: butynol butyrate
- enantiopreference [2]: (S)-preference
- lipase activity towards substrate [2]: active
- E-value (enantioselectivity) ([2]; after 40 h of reactions time): 8.06
- E-value (enantioselectivity) ([2]; initial value): 16.7

Compound: CC(=O)OCC(COC(C)=O)OC(C)=O [Triacetin, Triacetin (C2:0)]
- Relative activity [4]: 5

Compound: CCCCCCCCCCCCCCCC(=O)Oc1ccc([N+](=O)[O-])cc1 [pNP-palmitate, pNP-palmitate (C16:0)]
- Relative activity [5]: 32

Compound: CCCCCCCCCCCC(=O)Oc1ccc([N+](=O)[O-])cc1 [pNP-laurate, pNP-laurate (C12:0)]
- Relative activity [5]: 84

Compound: [Co+2] [Co2+]
- lipase activity in the presence of metal ions [3]: nearly unchanged

Compound: CCCC(=O)Oc1ccc([N+](=O)[O-])cc1 [pNP-butyrate, pNP-butyrate (C4:0)]
- Relative activity [5]: 57

Compound: CC(C)(C)O [tert-butanol]
- effect on the activity of the lipase [1]: little effect

Compound: C[S+](C)[O-] [DMSO]
- effect on the activity of the lipase [1]: little effect

Compound: CCCC(=O)OCC(COC(=O)CCC)OC(=O)CCC [Tributyrin, Tributyrin (C4:0)]
- Relative activity [4]: 10

Compound: CN(C)C=O [dimethylformamide]
- effect on the activity of the lipase [1]: little effect

Compound: [Ag+] [Ag+]
- lipase activity in the presence of metal ions [3]: nearly unchanged

Compound: CCCCCCCCCC(=O)Oc1ccc([N+](=O)[O-])cc1 [pNP-caprate, pNP-caprate (C10:0)]
- Relative activity [5]: 100

Compound: [Rb+] [Rb+]
- lipase activity in the presence of metal ions [3]: nearly unchanged

Compound: butynol acetate
- enantiopreference [2]: (S)-preference
- lipase activity towards substrate [2]: active
- E-value (enantioselectivity) ([2]; after 40 h of reactions time): 2.65
- E-value (enantioselectivity) ([2]; initial value): 9.2 and 9.15

Compound: CC(=O)OC(C)Cc1ccccc1 (stereo not shown) [1-phenyl-2-propyl-acetate]
- lipase activity towards substrate [2]: active

Compound: CCCCCCCC(=O)Oc1ccc([N+](=O)[O-])cc1 [pNP-caprylate, pNP-caprylate (C8:0)]
- Relative activity [5]: 90

Compound: CCCCCCCCCCCCCCCC(=O)OCC(COC(=O)CCCCCCCCCCCCCCC)OC(=O)CCCCCCCCCCCCCCC [Tripalmitin, Tripalmitin (C16:0)]
- DG 1,2- 2,3- [6]: 1%
- DG 1,3- [6]: 13%
- FA (fatty acid) [6]: 3%
- MG 1- 3- [6]: 18%
- TG (remaining substrate) [6]: 65%
- Relative activity [4]: 22

Compound: [Ni+2] [Ni2+]
- lipase activity in the presence of metal ions [3]: nearly unchanged

Compound: [Na+] [Na+]
- lipase activity in the presence of metal ions [3]: nearly unchanged

Compound: CC(C)=O [acetone]
- effect on the activity of the lipase [1]: little effect

Compound: CCCCCCCCCCCC(=O)OCC(COC(=O)CCCCCCCCCCC)OC(=O)CCCCCCCCCCC [Trilaurin, Trilaurin (C12:0)]
- DG 1,2- 2,3- [6]: 6%
- DG 1,3- [6]: 12%
- FA (fatty acid) [6]: 2%
- MG 1- 3- [6]: 22%
- TG (remaining substrate) [6]: 58%
- Relative activity [4]: 11

Compound: CCCCCCCC(=O)OCC(COC(=O)CCCCCCC)OC(=O)CCCCCCC [Tricaprylin, Tricaprylin (C8:0)]
- Relative activity [4]: 100

Compound: [Ca+2] [Ca2+]
- lipase activity in the presence of metal ions [3]: nearly unchanged

Compound: CCCCCCCCCCCCCCCCCC(=O)Oc1ccc([N+](=O)[O-])cc1 [pNP-stearate, pNP-stearate (C18:0)]
- Relative activity [5]: 8

Compound: [Zn+2] [Zn2+]
- lipase activity in the presence of metal ions [3]: decreased

Compound: [Fe+3] [Fe3+]
- lipase activity in the presence of metal ions [3]: decreased

Compound: CO [methanol]
- effect on the activity of the lipase [1]: little effect

Compound: [Cu+2] [Cu2+]
- lipase activity in the presence of metal ions [3]: nearly unchanged

Compound: [Mn+2] [Mn2+]
- lipase activity in the presence of metal ions [3]: nearly unchanged

Compound: CCCCCCCCCCCCCC(=O)OCC(COC(=O)CCCCCCCCCCCCC)OC(=O)CCCCCCCCCCCCC [Trimyristin, Trimyristin (C14:0)]
- DG 1,2- 2,3- [6]: 2%
- DG 1,3- [6]: 12%
- FA (fatty acid) [6]: 1%
- MG 1- 3- [6]: 19%
- TG (remaining substrate) [6]: 66%
- Relative activity [4]: 8

Compound: [Al+3] [Al3+]
- lipase activity in the presence of metal ions [3]: nearly unchanged

Compound: CC(=O)Oc1ccc([N+](=O)[O-])cc1 [pNP-acetate, pNP-acetate (C2:0)]
- Relative activity [5]: 9

Compound: [Sr+2] [Sr2+]
- lipase activity in the presence of metal ions [3]: nearly unchanged

Compound: [Fe+2] [Fe2+]
- lipase activity in the presence of metal ions [3]: decreased

From patent US7972831B2, “Lipases from thermophilic anaerobes” (Novozymes A/S, priority 2004, dated 2011)
